{
  "source": "paper PMC4327905",
  "about": "(Chemico-biological interactions, 2015)",
  "note": "Counter-ions that a name gives are not always drawn.",
  "data": [
    {"molecular_target": "T1, transthyretin (Homo sapiens, UniProt P02766)", "test": "acid-induced amyloid fibril formation, turbidity at […] nm, […] compound and […] TTR", "type": "biochemical", "units": {"Fibril Formation (%)": "% fibril formation"}, "values": [
      {"smiles": "Oc1cccc(-c2ccc(Cl)cc2)c1", "note": "[3′-OHPCB 3, 4′-chloro-biphenyl-3-ol]", "Fibril Formation (%)": 52.3},
      {"smiles": "O=S(=O)(O)Oc1cccc(-c2ccc(Cl)cc2)c1", "note": "[3′-PCB 3 sulfate, 4-chloro-3′-sulfooxy-biphenyl]", "Fibril Formation (%)": 30.7},
      {"smiles": "Oc1ccc(-c2cccc(Cl)c2)cc1Cl", "note": "[4-OHPCB 11, 3,3′-dichloro-biphenyl-4-ol]", "Fibril Formation (%)": 7.5},
      {"smiles": "O=S(=O)(O)Oc1ccc(-c2cccc(Cl)c2)cc1Cl", "note": "[4-PCB 11 sulfate, 3,3′-dichloro-4-sulfooxy-biphenyl]", "Fibril Formation (%)": 8.3},
      {"smiles": "O=S(=O)(O)Oc1ccc(-c2ccc(Cl)c(Cl)c2)c(Cl)c1", "note": "[4-PCB 33 sulfate, 2,3′,4′-trichloro-4-sulfooxy-biphenyl]", "Fibril Formation (%)": 12.7},
      {"smiles": "Oc1c(Cl)cc(-c2ccc(Cl)c(Cl)c2)cc1Cl", "note": "[4′-OHPCB 79, 3,3′,4′,5-tetrachloro-biphenyl-4-ol, reference compound]", "Fibril Formation (%)": 32.2},
      {"smiles": "O=S(=O)(O)Oc1ccc(-c2ccc(Cl)cc2)cc1", "note": "[4′-PCB 3 sulfate, 4-chloro-4′-sulfooxy-biphenyl]", "Fibril Formation (%)": 37.2},
      {"smiles": "O=S(=O)(O)Oc1ccc(-c2cc(Cl)ccc2Cl)cc1Cl", "note": "[4′-PCB 26 sulfate, 2,3′,5-trichloro-4′-sulfooxy-biphenyl]", "Fibril Formation (%)": 10.5},
      {"smiles": "O=C(O)c1ccccc1Nc1cccc(C(F)(F)F)c1", "note": "[Flufenamic acid, reference compound]", "Fibril Formation (%)": 22.3}
    ]},
    {"molecular_target": "T1, transthyretin", "test": "ANS fluorescence displacement", "type": "binding", "units": {"Kd": "nM"}, "values": [
      {"smiles": "O=S(=O)(O)Oc1ccc(-c2ccc(Cl)cc2)c(Cl)c1", "note": "[4-PCB 8 sulfate, 2,4′-dichloro-4-sulfooxy-biphenyl]", "Kd": 4.3}
    ]}
  ]
}
